Data on one compound can be found in PMC11535186, “Exploring the Anti-Inflammatory Potential of Ajuga integrifolia Leaves Extract: In Vitro Dual Inhibition of Cyclooxygenase and Lipoxygenase Enzymes” (Advances in Pharmacological and Pharmaceutical Sciences, 2024).

The assay addresses 5-LOX (Glycine max, UniProt P08170). In words: 5-LOX inhibitory assay (linoleic acid substrate, 234 nm). In kind it is biochemical. The conditions noted are these: read-out: % inhibition 5-LOX. On the procedure:
The inhibition of LOX was evaluated according to the method described by Malterud with slight modifications. A 100 μL enzyme solution was prepared in boric acid buffer (0.2 M; pH 9.0). To assess the inhibitory effect, 25 μL of each test extract (20, 40, 60, 80, and 100 μg/mL) was added to the enzyme solution. The mixture was then incubated at room temperature for 3 min. […] IC50 values were calculated by regression analysis using Microsoft Excel involving five concentrations. The percentage inhibition of enzyme activity and IC50 values are presented as the mean values ± SD.

Sequence of 5-LOX (P08170 whole entry): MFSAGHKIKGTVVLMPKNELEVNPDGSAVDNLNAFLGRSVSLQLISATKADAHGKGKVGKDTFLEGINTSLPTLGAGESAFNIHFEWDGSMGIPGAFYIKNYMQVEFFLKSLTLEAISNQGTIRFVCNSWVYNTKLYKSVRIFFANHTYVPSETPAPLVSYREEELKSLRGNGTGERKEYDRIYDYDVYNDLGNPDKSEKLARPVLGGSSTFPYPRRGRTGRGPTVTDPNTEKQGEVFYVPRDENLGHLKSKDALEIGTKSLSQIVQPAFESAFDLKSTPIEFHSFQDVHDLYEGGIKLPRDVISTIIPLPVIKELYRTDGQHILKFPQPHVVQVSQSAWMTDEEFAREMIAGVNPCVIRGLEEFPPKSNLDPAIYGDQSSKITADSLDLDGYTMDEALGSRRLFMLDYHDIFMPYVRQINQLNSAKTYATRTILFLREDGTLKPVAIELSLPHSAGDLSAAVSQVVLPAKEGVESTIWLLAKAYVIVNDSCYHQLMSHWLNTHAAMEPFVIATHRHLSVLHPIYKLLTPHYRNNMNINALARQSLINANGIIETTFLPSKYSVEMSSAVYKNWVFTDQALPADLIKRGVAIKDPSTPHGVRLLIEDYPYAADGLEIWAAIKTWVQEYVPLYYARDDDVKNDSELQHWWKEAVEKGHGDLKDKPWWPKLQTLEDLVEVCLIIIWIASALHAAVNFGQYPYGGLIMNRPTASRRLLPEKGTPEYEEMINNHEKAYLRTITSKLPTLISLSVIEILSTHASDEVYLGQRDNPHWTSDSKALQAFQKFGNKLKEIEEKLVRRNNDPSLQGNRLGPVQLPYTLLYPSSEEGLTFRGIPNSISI

As to `CC(c1cc2ccccc2s1)N(O)C(N)=O` (centres unmarked) [Zileuton], the inhibition (as a rule, the share of the control response that was lost under treatment) at 20 µg/mL worked out at 26.1%; the inhibition at 40 µg/mL turned out to be 47%; the inhibition at 60 µg/mL was 51.9%; the inhibition at 80 µg/mL amounted to 64.2%. For the same compound, the inhibition at 100 µg/mL was determined as 70.4%.
